According to patent US9187435B2, “Bridged Spiro[2.4]heptane ester derivatives” (Actelion Pharmaceuticals Ltd., priority 2010, dated 2015):
Structures can show the parent of a compound that is named as a salt.

target: T1, human ALX receptor (Homo sapiens, UniProt P25090); assay: Intracellular calcium measurements (FLIPR) in HEK293-hALXR-Gα16 cells, agonistic activity; assay type: cell-based; settings: values normalized to WKYMVm 10 nM
T1 construct: expressed in transfected cells; host or cells: HEK293 (HEK293-hALXR-Gα16)
T1 sequence (P25090 1-351): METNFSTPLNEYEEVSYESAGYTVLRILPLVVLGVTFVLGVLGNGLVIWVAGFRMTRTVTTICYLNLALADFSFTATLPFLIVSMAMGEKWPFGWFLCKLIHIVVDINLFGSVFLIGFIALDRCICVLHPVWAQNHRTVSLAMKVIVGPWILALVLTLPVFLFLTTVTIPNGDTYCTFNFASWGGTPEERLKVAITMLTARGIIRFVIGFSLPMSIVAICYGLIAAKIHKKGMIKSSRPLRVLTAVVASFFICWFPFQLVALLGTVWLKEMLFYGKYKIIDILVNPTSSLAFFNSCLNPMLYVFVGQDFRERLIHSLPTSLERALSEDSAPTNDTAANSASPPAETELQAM
Method in brief: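 HEK293 cells co-expressing human ALX receptor and Gα16, loaded with 1 μM Fluo-4 AM (60 min, 37 °C), then exposed to serially diluted compound. Peak fluorescence above baseline (ex 488/em 540 nm) was recorded after compound addition. Values were normalized to 10 nM WKYMVm as the high control, after subtracting the buffer-addition baseline.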

| EC50 [nM] | SMILES |
| --- | --- |
| 135 | NC(=O)CCOC(=O)[C@H]1[C@H](C(=O)Nc2ccc(Br)nc2)[C@@H]2CC[C@H]1C21CC1 [Example 68, (1S,2R,3R,4R)-[(3-Amino-3-oxopropyl) 2-((6-bromopyridin-3-yl)carbamoyl)spiro[bicyclo[2.2.1]heptane-7,1′-cyclopropane]-3-carboxylate]] |
| 145 | O=C(OCCOCCN1CC[C@H](F)C1)[C@H]1[C@H](C(=O)NCc2ccc(Br)cc2F)[C@@H]2CC[C@H]1C21CC1 [Example 69, (1S,2R,3R,4R)-[(S)-2-(2-(3-Fluoropyrrolidin-1-yl)ethoxy)ethyl 2-((4-bromo-2-fluorobenzyl)carbamoyl)spiro[bicyclo[2.2.1]heptane-7,1′-cyclopropane]-3-carboxylate]] |
| 162 | O=C(OCCN1CCNCC1)[C@H]1[C@H](C(=O)NCc2ccc(Br)cc2F)[C@@H]2CC[C@H]1C21CC1 [Example 71, (1S,2R,3R,4R)-[2-(piperazin-1-yl)ethyl 2-((4-bromo-2-fluorobenzyl)carbamoyl)spiro[bicyclo[2.2.1]heptane-7,1′-cyclopropane]-3-carboxylate]dihydrochloride] |
| 262 | O=C(OCCC1CCNCC1)[C@H]1[C@H](C(=O)NCc2ccc(Br)cc2F)[C@@H]2CC[C@H]1C21CC1 [Example 72, (1S,2R,3R,4R)-[2-(Piperidin-4-yl)ethyl 2-((4-bromo-2-fluorobenzyl)carbamoyl)spiro[bicyclo[2.2.1]heptane-7,1′-cyclopropane]-3-carboxylate]hydrochloride] |
| 270 | O=C(OCCC1CCNCC1(F)F)[C@H]1[C@H](C(=O)Nc2ccc(Br)nc2)[C@@H]2CC[C@H]1C21CC1 (stereo partly drawn) [Example 73, (1S,2R,3R,4R)-[2-(3,3-Difluoro-piperidin-4-yl)ethyl 2-((6-bromopyridin-3-yl)carbamoyl)spiro[bicyclo[2.2.1]heptane-7,1′-cyclopropane]-3-carboxylate]] |
| 403 | O=C(OCCOCCN1CCC(F)(F)C1)[C@H]1[C@H](C(=O)Nc2ccc(Br)nc2)[C@@H]2CC[C@H]1C21CC1 [Example 75, (1S,2R,3R,4R)-[2-(2-(3,3-Difluoropyrrolidin-1-yl)ethoxy)ethyl 2-((6-bromopyridin-3-yl)carbamoyl)spiro[bicyclo[2.2.1]heptane-7,1′-cyclopropane]-3-carboxylate]] |
| 2060 | O=C(OC1CCN(Cc2ccccc2)CC1)[C@H]1[C@H](C(=O)Nc2ccc(Br)nc2)[C@@H]2CC[C@H]1C21CC1 [Example 76, (1S,2R,3R,4R)-[1-Benzyl-piperidin-4-yl 2-((6-bromopyridin-3-yl)carbamoyl)spiro[bicyclo[2.2.1]heptane-7,1′-cyclopropane]-3-carboxylate]] |
| 1750 | CC(CC(F)(F)CN1CCCC1)OC(=O)[C@H]1[C@H](C(=O)Nc2ccc(Br)nc2)[C@@H]2CC[C@H]1C21CC1 (stereo partly drawn) [Example 77, (1S,2R,3R,4R)-[(4,4-Difluoro-5-(pyrrolidin-1-yl))pent-2-yl 2-((6-bromopyridin-3-yl)carbamoyl)spiro[bicyclo[2.2.1]heptane-7,1′-cyclopropane]-3-carboxylate]] |

More lines, now with the values behind:

| SMILES | EC50 [nM] |
| --- | --- |
| O=C(OCCOCCN1CC[C@H](F)C1)[C@H]1[C@H](C(=O)Nc2ccc(Br)nc2)[C@@H]2CC[C@H]1C21CC1 [Example 48, (1S,2R,3R,4R)-[(S)-2-(2-(3-Fluoropyrrolidin-1-yl)ethoxy)ethyl 2-((6-bromopyridin-3-yl)carbamoyl)spiro[bicyclo[2.2.1]heptane-7,1′-cyclopropane]-3-carboxylate]] | 9.9 |
| Cc1cc(CNC(=O)[C@H]2[C@H](C(=O)OCCC3(F)CCNCC3)[C@H]3CC[C@@H]2C32CC2)on1 [Example 49, (1S,2R,3R,4R)-[2-(4-Fluoro-piperidin-4-yl)ethyl 2-(((3-methylisoxazol-5-yl)methyl)carbamoyl)spiro[bicyclo[2.2.1]heptane-7,1′-cyclopropane]-3-carboxylate]] | 10.4 |
| O=C(OCC1CCNCC1)[C@H]1[C@H](C(=O)Nc2ccc(Br)cc2)[C@@H]2CC[C@H]1C21CC1 [Example 50, (1S,2R,3R,4R)-[(Piperidin-4-yl)methyl 2-((4-bromophenyl)carbamoyl)spiro[bicyclo[2.2.1]heptane-7,1′-cyclopropane]-3-carboxylate]hydrochloride] | 10.8 |
| Cc1cc(CNC(=O)[C@H]2[C@H](C(=O)OCC3(F)CCNCC3)[C@H]3CC[C@@H]2C32CC2)on1 [Example 51, (1S,2R,3R,4R)-[(4-Fluoro-piperidin-4-yl)methyl 2-(((3-methylisoxazol-5-yl)methyl)carbamoyl)spiro[bicyclo[2.2.1]heptane-7,1′-cyclopropane]-3-carboxylate]] | 11.3 |
| Cc1cc(CNC(=O)[C@H]2[C@H](C(=O)OCC3CCNCC3)[C@H]3CC[C@@H]2C32CC2)on1 [Example 52, (1S,2R,3R,4R)-[(Piperidin-4-yl)methyl 2-(((3-methylisoxazol-5-yl)methyl)carbamoyl)spiro[bicyclo[2.2.1]heptane-7,1′-cyclopropane]-3-carboxylate]] | 11.5 |
| O=C(OCCCCN1CC[C@H](F)C1)[C@H]1[C@H](C(=O)Nc2ccc(Br)nc2)[C@@H]2CC[C@H]1C21CC1 [Example 53, (1S,2R,3R,4R)-[(S)-4-(3-Fluoropyrrolidin-1-yl)butyl 2-((6-bromopyridin-3-yl)carbamoyl)spiro[bicyclo[2.2.1]heptane-7,1′-cyclopropane]-3-carboxylate]] | 11.9 |
| O=C(OCCCCN1CCCC1)[C@H]1[C@H](C(=O)Nc2ccc(Br)nc2)[C@@H]2CC[C@H]1C21CC1 [Example 54, (1S,2R,3R,4R)-[4-(Pyrrolidin-1-yl)butyl 2-((6-bromopyridin-3-yl)carbamoyl)spiro[bicyclo[2.2.1]heptane-7,1′-cyclopropane]-3-carboxylate]] | 14.6 |
| O=C(OCC1(F)CCNCC1)[C@H]1[C@H](C(=O)Nc2ccc(Br)nc2)[C@@H]2CC[C@H]1C21CC1 [Example 55, (1S,2R,3R,4R)-[(4-Fluoro-piperidin-4-yl)methyl 2-((6-bromopyridin-3-yl)carbamoyl)spiro[bicyclo[2.2.1]heptane-7,1′-cyclopropane]-3-carboxylate]] | 18.5 |
| O=C(OC1CCNCC1(F)F)[C@H]1[C@H](C(=O)Nc2ccc(Br)nc2)[C@@H]2CC[C@H]1C21CC1 (stereo partly drawn) [Example 56, (1S,2R,3R,4R)-[(3,3-Difluoro-piperidin-4-yl) 2-((6-bromopyridin-3-yl)carbamoyl)spiro[bicyclo[2.2.1]heptane-7,1′-cyclopropane]-3-carboxylate]] | 28.2 |
| Cc1cc(CNC(=O)[C@H]2[C@H](C(=O)OCCC3(F)CCNCC3)[C@H]3CC[C@@H]2C32CC2)no1 [Example 58, (1S,2R,3R,4R)-[2-(4-Fluoro-piperidin-4-yl)ethyl 2-(((5-methylisoxazol-3-yl)methyl)carbamoyl)spiro[bicyclo[2.2.1]heptane-7,1′-cyclopropane]-3-carboxylate]] | 36.7 |
| Cc1cc(CNC(=O)[C@H]2[C@H](C(=O)OCC3(F)CCNCC3)[C@H]3CC[C@@H]2C32CC2)no1 [Example 59, (1S,2R,3R,4R)-[(4-Fluoro-piperidin-4-yl)methyl 2-(((5-methylisoxazol-3-yl)methyl)carbamoyl)spiro[bicyclo[2.2.1]heptane-7,1′-cyclopropane]-3-carboxylate]] | 41.4 |
| O=C(OC1CCNCC1)[C@H]1[C@H](C(=O)NCc2ccc(Br)cc2F)[C@@H]2CC[C@H]1C21CC1 [Example 60, (1S,2R,3R,4R)-[Piperidin-4-yl 2-((4-bromo-2-fluorobenzyl)carbamoyl)spiro[bicyclo[2.2.1]heptane-7,1′-cyclopropane]-3-carboxylate]] | 43.4 |
| Cc1cc(CNC(=O)[C@H]2[C@H](C(=O)OC3CCNCC3(F)F)[C@H]3CC[C@@H]2C32CC2)on1 (stereo partly drawn) [Example 61, (1S,2R,3R,4R)-[(3,3-Difluoro-piperidin-4-yl) 2-(((3-methylisoxazol-5-yl)methyl)carbamoyl)spiro[bicyclo[2.2.1]heptane-7,1′-cyclopropane]-3-carboxylate]] | 50.1 |
| Cc1cc(CNC(=O)[C@H]2[C@H](C(=O)OCCN3CCNCC3)[C@H]3CC[C@@H]2C32CC2)no1 [Example 63, (1S,2R,3R,4R)-[2-(piperazin-1-yl)ethyl 2-(((5-methylisoxazol-3-yl)methyl)carbamoyl)spiro[bicyclo[2.2.1]heptane-7,1′-cyclopropane]-3-carboxylate]] | 79 |
| Cc1cc(CNC(=O)[C@H]2[C@H](C(=O)OCCC(N)=O)[C@H]3CC[C@@H]2C32CC2)on1 [Example 65, (1S,2R,3R,4R)-[(3-Amino-3-oxopropyl) 2-(((3-methylisoxazol-5-yl)methyl)carbamoyl)spiro[bicyclo[2.2.1]heptane-7,1′-cyclopropane]-3-carboxylate]] | 107 |
| Cc1cc(CNC(=O)[C@H]2[C@H](C(=O)OCCC3CCNCC3(F)F)[C@H]3CC[C@@H]2C32CC2)on1 (stereo partly drawn) [Example 66, (1S,2R,3R,4R)-[(3,3-Difluoro-piperidin-4-yl)ethyl 2-(((3-methylisoxazol-5-yl)methyl)carbamoyl)spiro[bicyclo[2.2.1]heptane-7,1′-cyclopropane]-3-carboxylate]] | 113 |
| O=C(OCCCC(=O)N1CCCC1)[C@H]1[C@H](C(=O)Nc2ccc(Br)nc2)[C@@H]2CC[C@H]1C21CC1 [Example 67, (1S,2R,3R,4R)-[(4-Pyrrolidino-4-oxobutyl) 2-((6-bromopyridin-3-yl)carbamoyl)spiro[bicyclo[2.2.1]heptane-7,1′-cyclopropane]-3-carboxylate]] | 125 |
